These results are taken from PMC11729419, “Thiol-Reactive or Redox-Active: Revising a Repurposing Screen Led to a New Invalidation Pipeline and Identified a True Noncovalent Inhibitor Against Papain-like Protease from SARS-CoV-2” (ACS Pharmacology & Translational Science, 2024).

Like-named read-outs stand apart in the source and are kept apart here. * marks the point of attachment. AMC = Cc1cc(=O)oc2cc(N*)ccc12; Cbz = O=C(OCc1ccccc1)* A value given as a limit tells only on which side of the number the result lay.

Assay [1] deals with T1, PLpro-NAB (Severe acute respiratory syndrome coronavirus 2, UniProt P0DTD1). Briefly: STD-NMR ligand binding and competition. The arrangement: species or system SARS-CoV-2. To be noted: for STD amplification factor AMP: 0.15 mM compound, PLpro/compound 1:100.
The target of assay [2] is T1, PLpro-NAB. The assay is classed as binding, SARS-CoV-2. To be noted: consistent in both DTT and L-Cys buffers.
The target in another assay is PLpro-NAB C111S (Severe acute respiratory syndrome coronavirus 2, UniProt P0DTD1, C1674S). Type of assay: binding, SARS-CoV-2.
Assay [3] addresses T2, SARS-CoV-2 PLpro-NAB (Severe acute respiratory syndrome coronavirus 2, UniProt P0DTD1). The experiment in a line: biochemical. The conditions noted are these: for HP PLpro-NAB inhibition [%] 20 μM triplicates 1 mM L-cys buffer: hit profiling; for HC PLpro-NAB SARS-CoV-2 inhibition [%] 20 µM triplicates DTT BUFFER / HP PLpro-NAB SARS-CoV-2 inhibition [%] 20 µM triplicates L-CYS BUFFER / IC50: Table S1.

Assay [4] deals with T2, SARS-CoV-2 PLpro-NAB. The assay is classed as biochemical.
Setting [5] is: L-cysteine buffer, average (SD).
[6] abbreviates: DTT buffer, read-out: HP PLpro-NAB SARS-CoV-2 IC50 [µM] triplicates DTT BUFFER.
The mark [7] stands for this setting: L-cysteine buffer, read-out: HP PLpro-NAB SARS-CoV-2 IC50 [µM] duplicates L-CYS BUFFER.

With `CCS(=O)(=O)N1CCC([C@@H](C)n2c(C)c(C(=O)NCc3c(OC)cc(C)[nH]c3=O)c3ccccc32)CC1` [CPI-169], on PLpro-NAB [1], the “Competitive STD-NMR with GRL-0617” value is on record as “displacement of CPI-169 from the GRL-0617 binding site”. For the same compound, the “STD amplification factor AMP” value on PLpro-NAB [1] (proton H11) was determined as 0.74; at PLpro-NAB [1] (proton H13), 1.19; at PLpro-NAB [1] (proton H23), 0.43; on PLpro-NAB [1] (proton H35) it was 0.89. For the same compound, the “Tm value of PLpro-NAB” value at PLpro-NAB [2] is “concentration-dependent increase in the Tm value”. Further, the “Tm / stability of PLpro-NAB C111S” value at PLpro-NAB C111S is given as “increased the Tm”. Besides, the “Inhibition in L-cysteine buffer versus DTT buffer (dose-response)” value at SARS-CoV-2 PLpro-NAB [3] (1 mM L-cysteine vs 1 mM DTT) is “did not show variations in inhibition potency or thermal stability”. Moreover, the “Inhibitory activity on retest in 1 mM L-cysteine” value at SARS-CoV-2 PLpro-NAB [3] (50% inhibition at 20 μM, 1 mM L-cysteine) is “retained their inhibitory activity”. In addition, the “HC PLpro-NAB inhibition [%] 20 μM triplicates 1 mM DTT buffer” value at SARS-CoV-2 PLpro-NAB [3] (hit confirmation, 20 μM, 1 mM DTT buffer, average (SD), 20 μM PR619 = 100%, DMSO = 0%, listed as CPI-169 (FhG)) is on record as 99.81 (2.18) %. For the same compound, on SARS-CoV-2 PLpro-NAB [3] (hit confirmation, 20 μM, 1 mM DTT buffer, average (SD), 20 μM PR619 = 100%, DMSO = 0%, read-out: HC PLpro-NAB inhibition [%] 20 μM triplicates 1 mM DTT buffer), the inhibition (as a rule, the drop in the measured response relative to a control, in per cent) at 20 µM turned out to be 96%. The “HP PLpro-NAB inhibition [%] 20 μM triplicates 1 mM L-cys buffer” value on SARS-CoV-2 PLpro-NAB [3] (20 μM, average (SD), 20 μM PR619 = 100%, listed as CPI-169 (EOS)) is 49.41 (2.14) %; at SARS-CoV-2 PLpro-NAB [3] (20 μM, average (SD), 20 μM PR619 = 100%, listed as CPI-169 (FhG)), 70.67 (1.71) %.
In the case of Cbz-LRGG-{AMC}, on SARS-CoV-2 PLpro-NAB [4], the Km (as a rule, the concentration of substrate that gives half-maximal velocity) was 45.2 µM and the Vmax is on record as 173 041 /min.
With Chicago-Sky-Blue-6b, the “HC PLpro-NAB SARS-CoV-2 inhibition [%] 20 µM triplicates DTT BUFFER” value at SARS-CoV-2 PLpro-NAB [3] (DTT buffer, average (SD)) is listed as 51.02 (1.78) %. The “HP PLpro-NAB SARS-CoV-2 inhibition [%] 20 µM triplicates L-CYS BUFFER” value at SARS-CoV-2 PLpro-NAB [3] (setting [5]) was 3.64 (5.37) %. Besides, the IC50 on SARS-CoV-2 PLpro-NAB [3] (setting [6]) and at SARS-CoV-2 PLpro-NAB [3] (setting [7]) was over 20 µM throughout.
As for Ro-08-2750, the “HC PLpro-NAB SARS-CoV-2 inhibition [%] 20 µM triplicates DTT BUFFER” value on SARS-CoV-2 PLpro-NAB [3] (DTT buffer, average (SD)) was 119.29 (1.83) %. Also, on SARS-CoV-2 PLpro-NAB [3] (setting [5]), the “HP PLpro-NAB SARS-CoV-2 inhibition [%] 20 µM triplicates L-CYS BUFFER” value is on record as -33.99 (8.82) %. Further, the IC50 (as a rule, the midpoint of a concentration-inhibition curve) on SARS-CoV-2 PLpro-NAB [3] (setting [6]) was 0.4 µM; on SARS-CoV-2 PLpro-NAB [3] (setting [7]), over 20 µM.
For Ryuvidine, in that order: 159.90 (1.27) %, -33.69 (4.70) %, 0.26 µM and over 20 µM.
On the same counts, the results for SF1670 are 183.62 (4.27) %, -32.73 (4.18) %, 0.25 µM and over 20 µM.
